Test results published in patent US9388210B2, “Neuroactive 17(20)-Z-vinylcyano-substituted steroids, prodrugs thereof, and methods of treatment using same” (priority 2011, dated 2016).
Like-named read-outs stand apart in the source and are kept apart here.

Columns and labels:
[1] = test system: tadpole; assay: Tadpole loss of righting reflex (LRR) and loss of swimming reflex (LSR); assay type: in vivo
[2] = target: picrotoxin binding site on GABAA receptors; conditions: for IC50: duplicate experiments in triplicate, ± SEM, read-out: IC50, inhibition of [35S]-TBPS binding
[3] = target: rat α1β2γ2L type GABAA receptors (Rattus norvegicus (Rat), UniProt P62813+P63138, INS375LLRMFSFK); assay: Oocyte electrophysiology: potentiation of 2 μM GABA chloride currents and direct gating, Xenopus laevis oocytes; assay type: cell-based; conditions: for ratio of currents measured in the presence/absence of added compound, 0.1 μM: 0.1 μM compound; for ratio of currents measured in the presence/absence of added compound, 0.1 μM / ratio of currents measured in the presence/absence of added compound, 1 μM / (gating) 10 μM: ratio of compound only current/2 μM GABA current / ratio of currents measured in the presence/absence of added compound, 10 μM: ± SEM; for ratio of currents measured in the presence/absence of added compound, 0.1 μM / ratio of currents measured in the presence/absence of added compound, 1 μM / ratio of currents measured in the presence/absence of added compound, 10 μM: N ≥ 4; for ratio of currents measured in the presence/absence of added compound, 1 μM: 1 μM compound; for (gating) 10 μM: ratio of compound only current/2 μM GABA current: 10 μM compound in the absence of GABA; for ratio of currents measured in the presence/absence of added compound, 10 μM: 10 μM compound
Description: The measured concentration of GABA, on average, gates about 4% of the maximum response of a cell. However, the sensitivity to GABA of the receptors, which determines the degree of steroid potentiation that can be measured, varied from one batch of oocytes to another.

[4] = test system: BALB/C mice; assay: Anesthesia in mice, tail vein injection (loss of righting reflex); assay type: in vivo
Experimental: Anesthetic evaluations were performed in 7-8 week-old BALB/C mice, weighing approximately 20 g. Steroids were dissolved in 22.5% (w/v) 2-hydroxypropyl-β-cyclodextrin solution (Sigma-Aldrich) at a concentration of 1.6 mg/ml or 3.2 mg/ml and injected through the tail vein in volumes of 5 μl/g body weight. Doses (8 or 16 mg/kg) were calculated according to body weight. Animals were placed prone as soon as they stopped moving. Loss of LRR was defined as inability of mice to right themselves within 5 seconds after being placed in a prone position. […] Animals were placed on a warming blanket during the time that they were anesthetized. Each dose was administered to three or four mice and the results are presented as mean±standard error of the mean.

[5] = loss of righting reflex, ± SEM, read-out: Tadpole LRR EC50
[6] = loss of swimming reflex, None = all animals had a swimming response at 10 μM
[7] = loss of swimming reflex, None = all animals had a swimming response at 10 μM, read-out: Tadpole LSR EC50

Row | Molecule | EC50 [1, 5] | EC50 [1, 7] | IC50 [2] | ratio of currents measured in the presence/absence of added compound, 0.1 μM ([3]; 2 μM GABA) | ratio of currents measured in the presence/absence of added compound, 1 μM ([3]; 2 μM GABA) | (gating) 10 μM: ratio of compound only current/2 μM GABA current [3] | ratio of currents measured in the presence/absence of added compound, 10 μM ([3]; 2 μM GABA) | also measured
1 | C[C@]12CC[C@@H](O)C[C@H]1CC[C@@H]1[C@@H]2C(=O)C[C@]2(C)/C(=C\C#N)CC[C@@H]12 [Compound 13a, [3α,5β,17(20)Z]-3-Hydroxy-11-oxo-pregn-17(20)-ene-21-nitrile] | > 10000 nM | – | – | – | – | – | – | Tadpole LSR EC50 [1, 6]: None
2 | [3α,5α,17(20)E]-3-(Acetyloxy)-11-oxopregn-17(20)-ene-20-carbonitrile [Compound 6d] | 2090 ± 120 nM | > 10000 nM | – | – | – | – | – | –
3 | CO[C@H]1C[C@]2(C)/C(=C/C#N)CC[C@H]2[C@@H]2CC[C@H]3C[C@H](O)CC[C@]3(C)[C@H]21 [Compound 17b, [3α,5α,11β,17(20)E]-3-Hydroxy-11-methoxypregn-17(20)-en-21-nitrile] | 1190 ± 490 nM | 3170 ± 10 nM | 605 ± 139 nM | 0.99 ± 0.02 | 1.07 ± 0.03 | 0.01 ± 0 | 3.68 ± 0.17 | –
4 | C[C@]12CC[C@@H](O)C[C@@H]1CC[C@@H]1[C@@H]2CC[C@]2(C)/C(=C/C#N)CC[C@@H]12 [Compound 14b, [3α,5α,17(20)E]-3-Hydroxypregn-17(20)-ene-21-nitrile] | 1210 ± 410 nM | > 10000 nM | 501 ± 39 nM | 0.76 ± 0.05 | 1.30 ± 0.07 | −0.14 ± 0.13 | 3.15 ± 0.38 | –
5 | CO[C@H]1C[C@@]2(C)[C@@H](CC[C@@H]3[C@@H]2CC[C@]2(C)/C(=C/C#N)CC[C@@H]32)C[C@@H]1O [Compound 16b, [2β,3α,5α,17(20)E]-3-Hydroxy-2-methoxyandrost-17(20)-ene-21-nitrile] | 290 ± 50 nM | 2970 nM | 544 ± 87 nM | 0.95 ± 0.15 | 1.34 ± 0.07 | 0.03 ± 0.14 | 4.81 ± 0.36 | –
6 | C[C@]12CC[C@@H](O)C[C@@H]1CC[C@@H]1[C@@H]2C(=O)C[C@]2(C)/C(=C/C#N)CC[C@@H]12 [Compound 6b, [3α,5α,17(20)E]-3-Hydroxy-11-oxopregn-17(20)-ene-2′-nitrile] | 9150 ± 5370 nM | 17300 ± 170 nM | – | – | – | – | – | –
7 | C[C@]12CC[C@@H](O)C[C@@H]1CC[C@H]1[C@@H]3CC[C@H](C=O)[C@@]3(C)CC(=O)[C@@H]12 [Compound 5b, (3α,5α,17β)-3-Hydroxy-11-oxoandrostane-17-carboxaldehyde] | 3980 ± 2430 nM | – | – | – | – | – | – | –
8 | CC(=O)[C@H]1CC[C@H]2[C@@H]3CC[C@H]4C[C@H](O)CC[C@]4(C)[C@H]3C(=O)C[C@]12C [Compound 1, alphaxalone, reference compound] | – | – | – | – | – | – | – | duration of anesthesia (loss of righting reflex) ([4]; 16 mg/kg): about 4 min; recovery period from initial return of leg movement to righting and walking ([4]; 16 mg/kg): 1 to 2 min
9 | CO[C@H]1C[C@]2(C)/C(=C\C#N)CC[C@H]2[C@@H]2CC[C@H]3C[C@H](O)CC[C@]3(C)[C@H]21 [Compound 17a, [3α,5α,11β,17(20)Z]-3-Hydroxy-11-methoxypregn-17(20)-ene-21-nitrile] | 67 ± 3 nM | 173 ± 3 nM | 53 ± 7 nM | 2.14 ± 0.28 | 10.28 ± 2.62 | 0.06 ± 0.07 | 11.20 ± 3.28 | –
10 | CO[C@H]1C[C@@]2(C)[C@@H](CC[C@@H]3[C@@H]2CC[C@]2(C)/C(=C\C#N)CC[C@@H]32)C[C@@H]1O [Compound 16a, [2β,3α,5α,17(20)Z]-3-Hydroxy-2-methoxyandrost-17(20)-ene-21-nitrile] | 29 ± 6 nM | 110 ± 1 nM | 28 ± 2 nM | 2.14 ± 0.33 | 12.02 ± 2.54 | 0.40 ± 0.12 | 18.77 ± 5.16 | –
11 | C[C@]12CC[C@@H](O)C[C@H]1CC[C@@H]1[C@@H]2C(=O)C[C@]2(C)/C(=C/C#N)CC[C@@H]12 [Compound 13b, [3α,5β,17(20)E]-3-Hydroxy-11-oxo-pregn-17(20)-ene-21-nitrile] | > 10000 nM | – | – | – | – | – | – | Tadpole LSR EC50 [1, 6]: None
12 | C[C@]12CC[C@@H](O)C[C@H]1CC[C@@H]1[C@@H]2CC[C@]2(C)/C(=C/C#N)CC[C@@H]12 [Compound 15b, [(3α,5β,17(20)E]-3-Hydroxypregn-17(20)-ene-21-nitrile] | 1210 ± 350 nM | 5480 ± 200 nM | 1200 nM | 0.94 ± 0.02 | 1.24 ± 0.04 | 0.01 ± 0.01 | 4.83 ± 0.44 | –
13 | C[C@]12CC[C@@H](O)C[C@@H]1CC[C@@H]1[C@@H]2CC[C@]2(C)/C(=C\C#N)CC[C@@H]12 [Compound 14a, [3α,5α,17(20)Z]-3-Hydroxypregn-17(20)-ene-21-nitrile] | – | – | 25 ± 3 nM | 2.18 ± 0.19 | 3.28 ± 0.37 | 0.29 ± 0.32 | 3.98 ± 0.25 | anesthetic activity in tadpoles ([1]; LRR and LSR): lack of anesthetic activity; Tadpole LRR EC50 ([1]; loss of righting reflex, ± SEM): None; Tadpole LSR EC50 [1, 6]: None; fold stronger [35S]-TBPS displacement than 17a ([2]; relative to C-11 MeO (17a)): about 2 fold; fold stronger [35S]-TBPS displacement than 6a ([2]; relative to C-11 carbonyl (6a)): about 5 fold
14 | C[C@]12CC[C@@H](O)C[C@H]1CC[C@@H]1[C@@H]2CC[C@]2(C)/C(=C\C#N)CC[C@@H]12 [Compound 15a, [3α,5β,17(20)Z]-3-Hydroxypregn-17(20)-ene-21-nitrile] | 472 ± 46 nM | 1000 nM | 56 ± 10 nM | 1.32 ± 0.03 | 5.00 ± 0.30 | 0.03 ± 0.02 | 6.82 ± 0.68 | –
15 | C/C(C#N)=C1\CC[C@H]2[C@@H]3CC[C@H]4C[C@H](O)CC[C@]4(C)[C@H]3C(=O)C[C@]12C [Compound 6c, [3α,5α,17(20)Z]-3-Hydroxy-11-oxopregn-17(20)-ene-20-carbonitrile] | 2710 ± 260 nM | 5480 ± 200 nM | – | – | – | – | – | –
16 | C[C@]12CC[C@@H](O)C[C@@H]1CC[C@@H]1[C@@H]2C(=O)C[C@]2(C)C(C=O)=CC[C@@H]12 [Compound 5a, (3α,5α)-3-Hydroxy-11-oxoandrost-16-ene-17-carboxaldehyde] | 3220 ± 30 nM | – | – | – | – | – | – | –
17 | C[C@]12CC[C@@H](O)C[C@@H]1CC[C@@H]1[C@@H]2C(=O)C[C@]2(C)/C(=C\C#N)CC[C@@H]12 [Compound 6a, [3α,5α,17(20)Z]-3-Hydroxy-11-oxopregn-17(20)-ene-2′-nitrile] | – | 5480 ± 200 nM | – | – | – | – | – | potentiation of GABA-mediated currents ([3]; 2 μM GABA, 0.1-10 μM compound): strongly enhanced GABA-mediated currents; duration of anesthesia (loss of righting reflex) ([4]; 8 mg/kg): about 1.5 min; time to loss of movement and righting reflex ([4]; 8 mg/kg): 10 to 25 s; duration of anesthesia (loss of righting reflex) ([4]; 16 mg/kg): about 4 min; onset of loss of righting reflex ([4]; 16 mg/kg): immediate
